How the values were obtained:
[1] = test system: hippocampal and DRG axons; assay: Axonal elastic modulus by AFM nano-indentation (modified Hertz model); assay type: cell-based, rat
Protocol: (§1) To minimize remodeling and maintain the parallel organization of the axons in the cultures, DRG neurons were cultured at a density four-times lower than hippocampal neurons and were tested within 7-10 days in culture, whereas hippocampal axons were tested after 14-18 days in culture.
Simultaneous compression and live imaging of single axons were performed on a Bioscope AFM mounted on an inverted optical microscope using a 100× objective (1.45 NA) and 1K charge-coupled device camera. Two different compression experiments were performed. In the first, a 20-mm polystyrene bead was fixed, see Reference [8], to the tip of silicon nitride probes with a nominal spring constant of k=0.01 N/m and used to compress axons with controlled force ranging from 0.1 nN≤F≤4 nN for different time periods. In the second, tipless n-type silicon probes with nominal spring constant of k=0.03 N/m were used to apply constant force to axons. […]
Modeling the underlying glass plane as a sphere with an infinite radius, then the term accounting for the deformation induced by the plane is negligible. Using the method of Reference [13] the δBead-Cylinder can be calculated using Equation (2) where γ is the Poisson ratio of the axon or the bead, E is the Young's modulus of the material, F is the total force applied, e is the eccentricity of the ellipse of contact, and K and

[2] = test system: DRG and hippocampal axons; assay: Immunocytochemistry: distribution of cytosolic components in axons with impaired transport; assay type: cell-based, rat
Protocol: as §1
Immunocytochemistry was performed as described in Reference [8] with mouse anti-tubulin, rabbit anti neurofilament, rabbit polyclonal anti-Tom20 (mitochondrial preprotein translocases of the outer membrane FL-145); and Alexa Fluor™ 488 conjugated phalloidin. The secondary antibodies used were Rhodamine Red antimouse IgG and Alexa Fluor™ 647 anti-rabbit IgG. Samples were imaged using a laser scanning confocal microscope with a 60× PlanApo oilimmersion objective on an inverted microscope.
To investigate the reason for the higher resistance of DRG axons to compression and to vinblastine effects, the inventors investigated the composition and distribution of cytosolic components in axons with impaired transport. […] The inventors analyzed the distribution of mitochondria, actin, neurofilament, and tubulin after blockade of axonal transport.

[3] = 1 hour treatment, FIG. 4C insert
[4] = increasing vinblastine concentrations, 1 hour
[5] = vinblastine 5 nM or 500 nM for 1 hour, fixed, AFM
[6] = increasing vinblastine concentration

vinblastine sulfate salt
vinblastine concentration at which the volume of the non-FAS segment decreased (DRG axons; [3]): 500 nM
volume of single FAS (DRG axons; [4]): increased with increasing vinblastine concentrations
number and size of FAS (focal axonal swelling) (DRG axons; [5]): increased with increasing vinblastine concentrations
vinblastine concentration at which the volume of the non-FAS segment decreased (hippocampal axons; [3]): 5 nM
volume of single FAS (hippocampal axons; [4]): did not significantly change
number and size of FAS (focal axonal swelling) (hippocampal axons; [5]): increased with increasing vinblastine concentrations
average elastic modulus at 30% of indentation (EM30%) ([1]; 5 nM vinblastine, p<0.001): significantly decreased
slope of the elastic modulus curve as a function of percentage indentation [1, 6]: decreased proportionally with increasing vinblastine concentration
tubulin and neurofilament aggregation at FAS [2, 6]: proportional increase
distribution of actin ([2]; vinblastine-treated axons): concentrated between FAS
distribution of mitochondria ([2]; vinblastine-treated axons): changed from uniform to a discontinuous punctate pattern
neurofilaments and microtubules ([2]; vinblastine-treated axons): collapsed and accumulated at FAS
